Tests used:
[1] = In vitro elution of histrelin from HP-60D-20 polyurethane implant (Example 1); assay type: physicochemical; details: HP-60D-20 implant, approx. 37° C.
Procedure: HP-60D-20 is extruded to tubes with thickness of 0.30 mm with inside diameter of 1.75 mm. The tubes are then cut into 25 mm in length. One side of the tube is sealed with heat using a heat sealer. The sealing time is less than one minute. Four pellets of histrelin acetate are loaded into the tube. Each pellet weighs approximately 13.5 mg for a total of 54 mg. Each pellet is comprised of a mixture of 98% histrelin and 2% stearic acid. The second end open of the tube is sealed with heat in the same way as for the first end. The loaded implant is then conditioned and primed. The conditioning takes place at room temperature in a 0.9% saline solution for one day. Upon completion of the conditioning, the implant undergoes priming. The priming takes place at room temperatures in a 1.8% saline solution for one day. Each implant is tested in vitro in a medium selected to mimic the pH found in the human body. The temperature of the selected medium was kept at approximately 37° C. during the testing. The release rates are shown on FIG. 4 and Table 2.

[2] = Release rates of histrelin from Tecophilic, Tecoflex and Carbothane polyurethane implants (Example 3); assay type: physicochemical; details: for Release rate normalized to surface area of the implant: 2% SA, 50 mg API
Text: Tables 2A-C show release rates of histrelin from three different classes of polyurethane compounds (Tecophilic®, Tecoflex® and Carbothane®). The release rates have been normalized to surface area of the implant, thereby adjusting for slight differences in the size of the various implantable devices. Histrelin is very soluble in water. Typically, a Log P value of greater than about 2.0 is considered to be not readily soluble in aqueous solution. The polyurethanes were selected to have varying affinities for water soluble active agents and varying flexibility (as indicated by the variation in flex modulus). […] Polyurethanes are available or can be prepared, for example, with a range of EWCs or flex moduli (Table 2). Tables 2A-C show normalized release rates for various active ingredients from polyurethane compounds. Tables 2D-F show the non-normalized release rates for the same active ingredients, together with implant composition.

For `CCNC(=O)[C@@H]1CCCN1C(=O)[C@H](CCCNC(=N)N)NC(=O)[C@H](CC(C)C)NC(=O)[C@@H](Cc1cn(Cc2ccccc2)cn1)NC(=O)[C@H](Cc1ccc(O)cc1)NC(=O)[C@H](CO)NC(=O)[C@H](Cc1c[nH]c2ccccc12)NC(=O)[C@H](Cc1cnc[nH]1)NC(=O)[C@@H]1CCC(=O)N1` [Histrelin Acetate, Histrelin acetate], the Histrelin elution rate ([1]; week 1 of elution) was 451.733 µg/day, the Histrelin elution rate ([1]; week 2 of elution) was 582.666 µg/day and the Histrelin elution rate ([1]; week 3 of elution) was 395.9 µg/day. For the same compound, the Histrelin elution rate ([1]; week 4 of elution) was 310.29 µg/day, the Histrelin elution rate ([1]; week 5 of elution) was 264.92 µg/day and the Histrelin elution rate ([1]; week 6 of elution) was 247.17 µg/day. It also gave a Histrelin elution rate ([1]; week 7 of elution) of 215.93 µg/day, a Histrelin elution rate ([1]; week 8 of elution) of 201.78 µg/day and a Histrelin elution rate ([1]; week 9 of elution) of 183.22 µg/day. For the same compound, the Histrelin elution rate ([1]; week 10 of elution) was 174.99 µg/day, the Histrelin elution rate ([1]; week 11 of elution) was 167.72 µg/day and the Histrelin elution rate ([1]; week 12 of elution) was 158.37 µg/day. It also gave a Histrelin elution rate ([1]; week 13 of elution) of 153.95 µg/day, a Histrelin elution rate ([1]; week 14 of elution) of 146.46 µg/day and a Histrelin elution rate ([1]; week 15 of elution) of 139.83 µg/day. For the same compound, the Histrelin elution rate ([1]; week 16 of elution) was 129.6 µg/day, the Histrelin elution rate ([1]; week 17 of elution) was 124.46 µg/day and the Histrelin elution rate ([1]; week 18 of elution) was 118.12 µg/day. The Histrelin elution rate ([1]; week 19 of elution) was 120.35 µg/day, the “Release rate normalized to surface area of the implant” value (“Release rate normalized” below) ([2]; Carbothane PC-3595A, F.M.: 4,500) was 0.2 μg/day/cm^2 and the Non-normalized release rate ([2]; Carbothane PC-3595A, F.M.: 4,500, ID 1.85 mm, wall 0.20 mm, L 25.25 mm, 1.625 cm^2) was 0.4 µg/day. The “Release rate normalized” value ([2]; Tecoflex EG 100A, F.M.: 10,000) was 0.3 μg/day/cm^2, the Non-normalized release rate ([2]; Tecoflex EG 100A, F.M.: 10,000, ID 1.85 mm, wall 0.20 mm, L 25.56 mm, 1.645 cm^2) was 0.5 µg/day and the “Release rate normalized” value ([2]; Tecophilic HP-60D-20, 15% EWC) was 93 μg/day/cm^2. The Non-normalized release rate ([2]; Tecophilic HP-60D-20, 15% EWC, ID 1.80 mm, wall 0.30 mm, L 24.5 mm, 1.616 cm^2) was 150 µg/day, the “Release rate normalized” value ([2]; Tecophilic HP-60D-35, 24% EWC) was 248 μg/day/cm^2 and the Non-normalized release rate ([2]; Tecophilic HP-60D-35, 24% EWC, ID 1.80 mm, wall 0.30 mm, L 24.5 mm, 1.616 cm^2) was 400 µg/day. For the same compound, the “Release rate normalized” value ([2]; Tecophilic HP-60D-60, 31% EWC) was 309 μg/day/cm^2 and the Non-normalized release rate ([2]; Tecophilic HP-60D-60, 31% EWC, ID 1.80 mm, wall 0.30 mm, L 24.5 mm, 1.616 cm^2) was 500 µg/day.

Source: patent US20110236456A1, “IMPLANTABLE DEVICE FOR THE DELIVERY OF HISTRELIN AND METHODS OF USE THEREOF” (Endo Pharmaceuticals Solutions Inc., priority 2008, published 2011)
